Assay results taken from paper PMC12567096, “An Efficacy- and In Vivo Exposure-Oriented Integrated Study to Investigate the Effective Components of Qishen Granule” (Pharmaceuticals, 2025).
Values belong to the molecule of their own block, whether it stands above or below them.

Assays:
[1] = Concentrations of 24 analytes in QSG treated plasma (Table S5); settings: for Concentration: QSG treated plasma, n = 5
[2] = Pharmacokinetic study in rats after oral administration of QSG; settings: for AUCi: exposure (AUC0→∞) of the component in rats after oral QSG, as used for ECI; for Oral relative bioavailability: exposure level (AUC0→∞) compared with the dosage of each compound in QSG; for Absorption efficiency / bioavailability (in words): from Table S12, rats; for AUC(0-inf): AUC0→∞
OGD/R-induced H9c2 cells = assay: Protective effect on OGD/R-induced H9c2 cells (CCK-8 cell viability); format: cell-based, rat; settings: for H9c2 cell survival after OGD/R (in words): 1, 10, 25, 50 and 100 μM prior to OGD/R, vs model group; for EC50: protective effect against OGD/R injury, H9c2 cell viability; for Protective effects on OGD/R-induced H9c2 cells (in words): at 50 and 100 μM
Procedure: (§1) Rat myocardial H9c2 cells (purchased from China Infrastructure of Cell Line Resources, Institute of Basic Medical Sciences, Chinese Academy of Medical Sciences) were cultured in DMEM supplemented with 10% fetal bovine serum (FBS), Penicillin (100 U/mL), and Streptomycin (100 μg/mL) at 37 °C under a humidified atmosphere of 5% CO2 and 95% air. For OGD/R treatment, H9c2 cells were cultured in glucose-free DMEM under hypoxic conditions (95%N2 + 5%CO2) for 4 h at 37 °C followed by complete medium under normal conditions with air (95%) and CO2 (5%) for 2 h. A control group was maintained under normal culture conditions (with glucose-containing DMEM and 5% CO2) without undergoing OGD/R treatment. CCK8 was used to assess cell viability. After treatment, H9c2 cells were seeded in 96-well plates, with each well supplemented with 10 μL of CCK-8 solution and then incubated for 1 h. Finally, the absorbance at 450 nm was detected by a microplate reader (Model […] 200 PRO, TECAN, Grodig, Austria).
(§2) When evaluating the cytotoxicities of the absorbed compounds, the H9c2 cells were seeded in 96-well plates at a density of 1 × 10^4 cells/well; when cells reached 80% confluence, they were treated with 25 and 50 μM of the 24 analytes to screen the non-toxic concentration ranges. Afterward, the protective effects were verified by assessing the cell viability when treating with different concentrations (1, 10, 25, 50, and 100 μM) of the analytes prior to OGD/R treatment.

H9c2 cells = assay: Cytotoxicity on H9c2 cells (CCK-8); format: cell-based, rat
Procedure: as §1
as §2, with “they were treated with 25 and 50 μM of the 24 analytes to screen the non-toxic concentration ranges.” left out

[3] = rat plasma, single oral 7 g/kg QSG, n = 6
[4] = Sprague Dawley, rat, plasma, oral, 7 g/kg
[5] = Sprague Dawley, rat, plasma, po, 7 g/kg

Structure (SMILES): O=C(/C=C/c1ccc(O)c(O)c1)O[C@H]1[C@H](O)C[C@](O)(C(=O)O)C[C@H]1O [Cryptochlorogenic acid]
Concentration ([1]; 0.08 h): 17.855 ± 11.504 ng/mL
Concentration ([1]; 0.17 h): 95.627 ± 23.461 ng/mL
Concentration ([1]; 0.5 h): 135.955 ± 20.918 ng/mL
Concentration ([1]; 1 h): 54.572 ± 22.599 ng/mL
Concentration ([1]; 2 h): 29.505 ± 18.460 ng/mL
Concentration ([1]; 4 h): 18.424 ± 6.281 ng/mL
Concentration ([1]; 8 h): 21.857 ± 6.099 ng/mL
Concentration ([1]; 12 h): 12.189 ± 3.932 ng/mL
AUC0→∞ ([2]; Table S12, rats, oral QSG): 576.2 ng·h/mL
AUCi [2]: 576.2
Oral relative bioavailability [2]: 0.026%
Absorption efficiency / bioavailability (in words) ([2]; oral QSG): relatively higher absorption rates
AUC0→t [2, 3]: 532.2 ± 41.45 ng·h/mL
AUC0→∞ [2, 3]: 576.2 ± 58.15 ng·h/mL
Cmax [2, 3]: 184.1 ± 57.43 ng/mL
MRT [2, 3]: 8.933 ± 0.5290 h
T1/2 [2, 3]: 10.84 ± 2.625 h
Tmax [2, 3]: 0.364 ± 0.076 h
H9c2 cell survival after OGD/R (in words) (OGD/R-induced H9c2 cells): significantly improve H9c2 cell survival rates
EC50 (OGD/R-induced H9c2 cells): 1.13 µM
Inhibition rate (H9c2 cells; 25 μM, H9c2 cells, n=3): -16.2 ± 4.2%
Inhibition rate (H9c2 cells; 50 μM, H9c2 cells, n=3): -3.4 ± 0.2%
Inhibition rate (H9c2 cells; 100 μM, H9c2 cells, n=3): 5.2 ± 0.4%
Effect on H9c2 cell viability / cytotoxicity (in words) (H9c2 cells; CCK-8, compared to the control group): significantly enhanced cell viabilities

Structure (SMILES): CC(C)(O)[C@@H]1CC[C@](C)([C@H]2[C@@H](O)C[C@@]3(C)[C@@H]4C[C@H](O[C@@H]5O[C@H](CO)[C@@H](O)[C@H](O)[C@H]5O)[C@H]5C(C)(C)[C@@H](O[C@@H]6OC[C@@H](O)[C@H](O)[C@H]6O)CC[C@@]56C[C@@]46CC[C@]23C)O1 [Astragaloside IV]
Concentration ([1]; 0.17 h): 7.10 ± 5.941 ng/mL
Concentration ([1]; 0.5 h): 8.655 ± 2.757 ng/mL
Concentration ([1]; 1 h): 3.017 ± 3.507 ng/mL
Concentration ([1]; 2 h): 3.783 ± 2.015 ng/mL
Concentration ([1]; 4 h): 0.710 ± 1.991 ng/mL
Concentration ([1]; 8 h): 1.337 ± 1.728 ng/mL
Concentration ([1]; 12 h): 2.200 ± 2.015 ng/mL
AUC0→∞ ([2]; Table S12, rats, oral QSG): 144.9 ng·h/mL
AUCi [2]: 144.9
Oral relative bioavailability [2]: 0.107%
Absorption efficiency / bioavailability (in words) ([2]; oral QSG): relatively higher absorption efficiency
AUC0→t [2, 3]: 55.94 ± 26.16 ng·h/mL
AUC0→∞ [2, 3]: 144.9 ± 101.2 ng·h/mL
Cmax [2, 3]: 12.06 ± 2.010 ng/mL
MRT [2, 3]: 6.104 ± 3.716 h
T1/2 [2, 3]: 14.87 ± 9.060 h
Tmax [2, 3]: 0.250 ± 0.0920 h
Shape of the plasma concentration–time curve (in words) ([2]; rats, oral QSG): Double peaks
H9c2 cell survival after OGD/R (in words) (OGD/R-induced H9c2 cells): significantly improve H9c2 cell survival rates
Protective effects on OGD/R-induced H9c2 cells (in words) (OGD/R-induced H9c2 cells): significant protective effects
Inhibition rate (H9c2 cells; 25 μM, H9c2 cells, n=3): -6.7 ± 7.1%
Inhibition rate (H9c2 cells; 50 μM, H9c2 cells, n=3): 7.0 ± 2.1%
Inhibition rate (H9c2 cells; 100 μM, H9c2 cells, n=3): 15.0 ± 2.3%

concentration at 0.08 h [1, 4]: 0.74 ± 0.932 ng/mL
concentration at 0.17 h [1, 4]: 2.81 ± 1.24 ng/mL
concentration at 0.5 h [1, 4]: 4.23 ± 0.976 ng/mL
concentration at 1 h [1, 4]: 2.77 ± 1.06 ng/mL
concentration at 2 h [1, 4]: 1.45 ± 0.436 ng/mL
concentration at 4 h [1, 4]: 1.03 ± 0.395 ng/mL
concentration at 8 h [1, 4]: 0.656 ± 0.349 ng/mL
concentration at 12 h [1, 4]: 0.289 ± 0.213 ng/mL
AUC [2, 5]: 27.7 ng·h/mL
AUC(0-t) [2, 5]: 18.5 ± 5.01 ng·h/mL
Cmax [2, 5]: 4.31 ± 0.952 ng/mL
MRT [2, 5]: 6.79 ± 4.77 h
Tmax [2, 5]: 0.516 ± 0.15 h
half-life [2, 5]: 10.9 ± 9.19 h
AUC(0-inf) ([2]; Sprague Dawley, rat, plasma, po, 7 g/kg, Table S12, rats, oral QSG): 27.7 ng·h/mL
AUC(0-inf) ([2]; Sprague Dawley, rat, plasma, po, 7 g/kg, rat plasma, single oral 7 g/kg QSG, n = 6): 27.7 ± 12.2 ng·h/mL
Oral relative bioavailability [2]: 0.033%
Structure (SMILES): COc1ccc(-c2coc3cc(O)ccc3c2=O)cc1 [Formononetin]
H9c2 cell survival after OGD/R (in words) (OGD/R-induced H9c2 cells): significantly improve H9c2 cell survival rates
EC50 (OGD/R-induced H9c2 cells; Rattus norvegicus): 65 µM
Protective effects on OGD/R-induced H9c2 cells (in words) (OGD/R-induced H9c2 cells): significant protective effects
inhibition at 25 µM (H9c2 cells; Rattus norvegicus, 25 μM, H9c2 cells, n=3, read-out: Inhibition rate): 10.7 ± 4.5%
inhibition at 50 µM (H9c2 cells; Rattus norvegicus, 50 μM, H9c2 cells, n=3, read-out: Inhibition rate): 10.8 ± 5.2%
inhibition at 100 µM (H9c2 cells; Rattus norvegicus, 100 μM, H9c2 cells, n=3, read-out: Inhibition rate): 13.5 ± 2.2%
